In patent US6653306B1, “Epoxy-steroidal aldosterone antagonist and angiotensin II antagonist combination therapy” (G.D. Searle & Co., priority 1995, dated 2003):
Several values for one entry are separate records, joined by “and”; a condition that tells them apart may be missing. Equal entries are not always repeated. Where two headings read alike, the source gives them in different places.

Columns and labels:
pressor response to AII = experiment: Assay C: In vivo intragastric pressor assay response for AII antagonists; parameters: species or system rat; conditions: intragastric, or intraduodenal for examples listed
Protocol: Assay C: In Vivo Intragastric Pressor Assay Response for AII Antagonists
Male Sprague-Dawley rats weighing 225-300 grams were anesthetized with methohexital (30 mg/kg, i.p.) and catheters were implanted into the femoral artery and vein. The catheters were tunneled subcutaneously to exit dorsally, posterior to the head and between the scapulae. The catheters were filled with heparin (1000 units/ml of saline). The rats were returned to their cage and allowed regular rat chow and water ad libitum. After full recovery from surgery (3-4 days), rats were placed in Lucite holders and the arterial line was connected to a pressure transducer. Arterial pressure was recorded on a Gould polygraph (mmHg). Angiotensin II was administered as a 30 ng/kg bolus via the venous catheter delivered in a 50 μl volume with a 0.2 ml saline flush. The pressor response in mm Hg was measured by the differer.-:e from pre-injection arterial pressure to the maximum pressure achieved. The AII injection was repeated every 10 minutes until three consecutive injections yielded responses within 4 mmHg of each other. These three responses were then averaged and represented the control response to AII. The test compound was suspended in 0.5% methylcellulose in water and was administered by gavage. The volume administered was 2 ml/kg body weight. The standard dose was 3 mg/kg. Angiotensin II bolus injections were given at 30, 45, 60, 75, 120, 150, and 180 minutes after gavage. The pressor response to AII was measured at each time point. The rats were then returned to their cage for future testing. A minimum of 3 days was allowed between tests. Percent inhibition was calculated for each time point following gavage by the following formula:
[(Control Response—Response at time point)/Control Response]×100.

[1] = target: angiotensin II AT1 receptor; experiment: Assay A: Angiotensin II binding activity (125I-AII displacement, rat uterine membrane preparation)
rabbit aortic rings = experiment: Assay B: In vitro vascular smooth muscle response for AII (antagonist activity, pA2); type: cell-based; conditions: two values per cell separated by / are separate determinations; for Kb: Oryctolagus cuniculus
Protocol: Assay B: In Vitro Vascular Smooth Muscle-response for AII
The compounds of the invention were tested for antagonist activity in rabbit aortic rings. Male New Zealand white rabbits (2-2.5 kg) were sacrificed using an overdose of pentobarbital and exsanguinated via the carotid arteries. The thoracic aorta was removed, cleaned of adherent fat and connective tissue and then cut into 3-mm ring segments. The endothelium was removed from the rings by gently sliding a rolled-up piece of filter paper into the vessel lumen. The rings were then mounted in a water-jacketed tissue bath, maintained at 37° C., between moveable and fixed ends of a stainless steel wire with the moveable end attached to an FT03 Grass transducer coupled to a Model 7D Grass Polygraph for recording isometric force responses. The bath was filled with 20 ml of oxygenated (95% oxygen/5% carbon dioxide) Krebs solution of the following composition (mM): 130 NaCl, […], 15 KCl, 1.2 NaH2PO4, 1.2 MgSO4, 2.5 CaCl2, and 11.4 glucose. The preparations were equilibrated for one hour before approximately one gram of passive tension was placed on the rings. Angiotensin II concentration-response curves were then recorded (3×10^−10 to 1×10^−5 M). Each concentration of AII was allowed to elicit its maximal contraction, and then AII was washed out repeatedly for 30 minutes before rechallenging with a higher concentration of AII. Aorta rings were exposed to the test antagonist at […] for 5 minutes before challenging with AII. Adjacent segments of the same aorta ring were used for all concentration-response curves in the presence or absence of the test antagonist. The effectiveness of the test compound was expressed in terms of pA2 values and were calculated according to H. O. Schild [Br. J. Pharmacol, Chemother., 2,189-206 (1947)]. The pA2 value is the concentration of the antagonist which increases the EC50 value for AII by a factor of two. Each test antagonist was evaluated in aorta rings from two rabbits.

[2] = Rattus norvegicus, dose 10 mg/kg
[3] = in vitro vascular smooth muscle response, read-out: Assay B pA2 (converted)
[4] = Rattus norvegicus, dose 30 mg/kg
[5] = Rattus norvegicus, dose 3 mg/kg

| SMILES | IC50 [1] | Kb (rabbit aortic rings; [3]) | also measured |
| --- | --- | --- | --- |
| CCCCc1nc(CCc2ccccc2)nn1Cc1ccc(-c2ccccc2-c2nnn[nH]2)cc1 [Compound 26] | 3.2 nM | 0.148 nM | inhibition at 10 mg/kg (pressor response to AII; [2]): 50%; Assay C Duration (pressor response to AII; dose 10 mg/kg): >180 min |
| CCCCc1nc(C(=O)CCC)nn1Cc1ccc(-c2ccccc2-c2nnn[nH]2)cc1 [Compound 30] | 22 nM | 18.6 nM | inhibition at 30 mg/kg (pressor response to AII; [4]): 50%; Assay C Duration (pressor response to AII; dose 30 mg/kg): >180 min |
| CCCCc1nn(CC(OCC(=O)OCC)c2ccccc2)c(=O)n1Cc1ccc(-c2ccccc2-c2nn[nH]n2)cc1 (stereo not shown) [Compound 107] | 180 nM | 5.01 nM | – |
| CCCCc1nc2c(Cl)nnc(Cl)c2n1Cc1ccc(-c2ccccc2-c2nnn[nH]2)cc1 [Compound 110] | 590 nM | 398 nM | – |
| CCCCc1nc2c(O)nnc(O)c2n1Cc1ccc(-c2ccccc2-c2nnn[nH]2)cc1 [Compound 111] | – | 1 nM | inhibition at 30 mg/kg (pressor response to AII; [4]): 87% |
| CCCCc1nc2c(OCC)nnc(OCC)c2n1Cc1ccc(-c2ccccc2-c2nnn[nH]2)cc1 [Compound 112] | 2000 nM | 6310 nM | – |
| CCCCc1nc2c(CCC)nnc(O)c2n1Cc1ccc(-c2ccccc2-c2nnn[nH]2)cc1 [Compound 113] | – | 3.98 nM | inhibition at 10 mg/kg (pressor response to AII; [2]): 60%; Assay C Duration (pressor response to AII; dose 10 mg/kg): 180 min |
| CCCCc1nc2cnnc(O)c2n1Cc1ccc(-c2ccccc2-c2nnn[nH]2)cc1 [Compound 115] | – | 6.31 nM | inhibition at 3 mg/kg (pressor response to AII; [5]): 40%; Assay C Duration (pressor response to AII; dose 3 mg/kg): >240 min |
| CCCCc1nc2c(OC(=O)C(C)C)nnc(O)c2n1Cc1ccc(-c2ccccc2-c2nnn[nH]2)cc1 [Compound 119] | – | 0.617 nM | inhibition at 3 mg/kg (pressor response to AII; [5]): 20%; Assay C Duration (pressor response to AII; dose 3 mg/kg): 60 min |
| CCCCc1nc2c(OC(=O)C3CCCCC3)nnc(O)c2n1Cc1ccc(-c2ccccc2-c2nnn[nH]2)cc1 [Compound 120] | – | 0.891 nM | inhibition at 10 mg/kg (pressor response to AII; [2]): 80%; Assay C Duration (pressor response to AII; dose 10 mg/kg): 240 min |
| CCCCc1nc2c(OC(=O)Cc3ccccc3)nnc(O)c2n1Cc1ccc(-c2ccccc2-c2nnn[nH]2)cc1 [Compound 124] | – | – | inhibition at 3 mg/kg (pressor response to AII; [5]): 45%; Assay C Duration (pressor response to AII; dose 3 mg/kg): >180 min; Kb (rabbit aortic rings; read-out: Assay B pA2, in vitro vascular smooth muscle response (converted)): 0.38 nM |
| CCCCc1nc(Cc2ccc(-c3ccccc3C(=O)O)cc2)n(CCCC)n1 [Compound 126] | 240 nM | 63.1 nM | – |
| CCCCc1nc(Cc2ccc(-c3ccccc3C(=O)O)cc2)nn1CCCC [Compound 127] | 12000 nM | 11000 nM | – |
| CCCCc1nc(Cc2ccc(-c3ccccc3-c3nnn[nH]3)cc2)n(CCCC)n1 [Compound 128] | 16 nM | 2.34 nM | – |
| CCCCc1nc(Cc2ccc(-c3ccccc3-c3nnn[nH]3)cc2)nn1CCCC [Compound 129] | 6700 nM | 5010 nM | – |
| CCCCn1nc(C(F)(F)CCC)nc1Cc1ccc(-c2ccccc2-c2nnn[nH]2)cc1 [Compound 130] | 40 nM | 7.94 nM | – |
| CCCCc1cn(CCCC)c(=O)n1Cc1ccc(-c2ccccc2-c2nnn[nH]2)cc1 [Compound 132] | 12 nM | 2.51 nM | – |
| CCCCc1c(C)n(CCCC)c(=O)n1Cc1ccc(-c2ccccc2-c2nnn[nH]2)cc1 [Compound 137] | 220 nM | 5.01 nM | – |
| CCCc1cn(CCC)c(=O)n1Cc1ccc(-c2ccccc2-c2nnn[nH]2)cc1 [Compound 138] | 130 nM | 6.31 nM | – |
| CCCCc1nc(CCCC)n(Cc2ccc(-n3c(Br)ccc3-c3nnn[nH]3)cc2)n1 [Compound 141] | 0.11 nM | 9.55 nM | – |
| CCCCc1nc(Cl)c(CO)n1Cc1ccc(-n2cccc2C(=O)O)cc1 [Compound 148] | – | 1580 nM | inhibition at 3 mg/kg (pressor response to AII; [5]): 92%; Assay C Duration (pressor response to AII; dose 3 mg/kg): 20 to 30 min |
| CCCCn1nc(CCc2ccccc2)nc1Cc1ccc(-c2ccccc2-c2nnn[nH]2)nc1 [Compound 151] | 17 nM | 17.4 nM | – |
| CCCCn1nc(/C=C/c2cccs2)nc1Cc1ccc(-c2ccccc2-c2nnn[nH]2)nc1 [Compound 154] | 97 nM | 6.46 nM | – |

| SMILES | IC50 [1] | Kb (rabbit aortic rings; [3]) | also measured |
| --- | --- | --- | --- |
| CCCCc1nc(Cc2ccc(-c3ccccc3-c3nnn[nH]3)nc2)n(CC(CC)CC)n1 [Compound 157] | 530 nM | 603 nM | – |
| CCCCn1nc(C(=O)CCC)nc1Cc1ccc(-c2ccccc2-c2nnn[nH]2)nc1 [Compound 160] | 64 nM | 13.5 nM | – |
| CCCn1nc(C(C)(F)F)nc1Cc1ccc(-c2ccccc2-c2nnn[nH]2)nc1 [Compound 165] | 410 nM | 126 nM | – |
| CCCCn1nc(C(C)(F)F)nc1Cc1ccc(-c2ccccc2-c2nnn[nH]2)nc1 [Compound 166] | 160 nM | 26.9 nM | – |
| CCCn1nc(C(F)(F)CC)nc1Cc1ccc(-c2ccccc2-c2nnn[nH]2)nc1 [Compound 167] | 370 nM | 83.2 nM | – |
| CCCCn1nc(C(F)(F)CC)nc1Cc1ccc(-c2ccccc2-c2nnn[nH]2)nc1 [Compound 168] | 420 nM | 20.4 nM | – |
| CCCCn1nc(C(=O)NC)nc1Cc1ccc(-c2ccccc2-c2nnn[nH]2)nc1 [Compound 172] | 70 nM | 70.8 nM | – |
| CCCn1nc(C(OC)OC)nc1Cc1ccc(-c2ccccc2-c2nnn[nH]2)nc1 [Compound 174] | 180 nM | 51.3 nM | – |
| CCCCn1nc(C(OC(C)C)OC(C)C)nc1Cc1ccc(-c2ccccc2-c2nnn[nH]2)nc1 [Compound 178] | 88 nM | 28.8 nM | – |
| CCCCn1nc(C=O)nc1Cc1ccc(-c2ccccc2-c2nnn[nH]2)nc1 [Compound 179] | 310 nM | 214 nM | – |
| CCCCc1nc(Cc2ccc(-c3ccccc3-c3nnn[nH]3)nc2)n(CC(C)(C)C)n1 [Compound 184] | 1100 nM | 166 nM | – |
| CCCCc1nc(CCCC)n(Cc2ccc(-c3ccccc3-c3nnn[nH]3)cn2)n1 [Compound 239] | – | 13.2 nM | inhibition at 3 mg/kg (pressor response to AII; [5]): 20% |
| CCCCc1nc(CCCC)n(Cc2ccc(-c3cnccc3-c3nnn[nH]3)cc2)n1 [Compound 244] | 150 nM | 67.6 nM | – |
| CCCc1nc(CCC)n(Cc2ccc(-c3ccccc3-c3nnn[nH]3)nc2)n1 [Compound 246] | 72 nM | 34.7 nM | – |
| CCCCc1nc(C(=O)NC)nn1Cc1ccc(-c2ccccc2-c2nnn[nH]2)nc1 [Compound 257] | 160 nM | 234 nM | – |
| CCCCc1nc(C(=O)NC)n(Cc2ccc(-c3ccccc3-c3nnn[nH]3)nc2)n1 [Compound 258] | 350 nM | 145 nM | – |
| CCCCc1nc(-c2ccccc2C)n(Cc2ccc(-c3ccccc3-c3nnn[nH]3)nc2)n1 [Compound 262] | 530 nM | 603 nM | – |
| CCCCc1cn(-c2c(C(C)C)cccc2C(C)C)c(=O)n1Cc1ccc(-c2ccccc2-c2nnn[nH]2)cc1 [Compound 277] | 190 nM | 288 nM | – |
| CCCCc1cn(-c2c(C)cc(C(C)(C)C)cc2C)c(=O)n1Cc1ccc(-c2ccccc2-c2nnn[nH]2)cc1 [Compound 279] | 270 nM | – | Assay B pA2 (rabbit aortic rings; in vitro vascular smooth muscle response): 8.06 and 8.25 |
| CCCCc1nc(C)nn1Cc1ccc(-c2ccccc2C(=O)O)cc1 [Compound 280] | 480 nM | 389 nM | – |
| CCCCc1nc(Cl)nn1Cc1ccc(-c2ccccc2C(=O)O)cc1 [compound 6] | – | 282 nM | inhibition at 100 mg/kg (pressor response to AII; Rattus norvegicus, dose 100 mg/kg): 90% |
| CCCCc1nc(Cl)nn1Cc1ccc(-c2ccccc2-c2nnn[nH]2)cc1 [compound 7] | – | 9.77 nM | inhibition at 30 mg/kg (pressor response to AII; [4]): 90% |
